Experimental data: patent US6043212A, “Recombinant C140 receptor, its agonists and antagonists, and nucleic acids encoding the receptor” (COR Therapeutics, Inc., priority 1995, dated 2000)
Numbering of substitutions follows the chain as printed. Peptide text beside a SMILES is read from it.

How the values were obtained:
[1] = biological target: T1, wild-type mouse C140 receptor (Mus musculus, UniProt P55086); assay: 45Ca release by Xenopus oocytes expressing wild-type mouse C140 receptor; format: cell-based
T1 construct: Native receptors were produced by cloning the coding region of the receptor gene; expressed in transfected cells; host or cells: Xenopus laevis oocytes injected with capped cRNA from pSG-5 C140
T1 sequence (P55086 32-399 limits assumed): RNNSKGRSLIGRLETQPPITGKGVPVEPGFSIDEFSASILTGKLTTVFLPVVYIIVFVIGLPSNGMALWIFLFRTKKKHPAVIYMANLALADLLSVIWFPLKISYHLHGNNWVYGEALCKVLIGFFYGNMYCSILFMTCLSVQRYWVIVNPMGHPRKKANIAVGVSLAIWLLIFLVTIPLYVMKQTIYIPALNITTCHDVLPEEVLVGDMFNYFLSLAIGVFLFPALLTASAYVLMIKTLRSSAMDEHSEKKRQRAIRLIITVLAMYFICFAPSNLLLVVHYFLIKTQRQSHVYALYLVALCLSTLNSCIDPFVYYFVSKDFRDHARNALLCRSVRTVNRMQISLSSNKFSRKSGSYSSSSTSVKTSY
Protocol: Agonist-induced increases in ^45 Ca release by oocytes expressing cRNA encoding C140 receptor or other recombinant cells producing C140 receptor are assessed by published techniques (Williams, J. A., et al., Proc Natl Acad Sci USA (1988) 85:4939-4943). Briefly, intracellular calcium pools are labeled by incubating groups of 30 oocytes in 300 μl calcium-free modified Barth's solution (MBSH) containing 50 μCi ^45 CaCl2 (10-40 mCi/mg Ca; Amersham) for 4 hours at RT. The labeled oocytes or cells are washed, then incubated in MBSH II without antibiotics for 90 minutes. Groups of 5 oocytes are selected and placed in individual wells in a 24-well tissue culture plate (Falcon 3047) containing 0.5 ml/well MBSH II without antibiotics. This medium is removed and replaced with fresh medium every 10 minutes; the harvested medium is analyzed by scintillation counting to determine ^45 Ca released by the oocytes during each 10-minute incubation. The 10-minute incubations are continued until a stable baseline of ^45 Ca release per unit time is achieved. Two additional 10-minute collections are obtained, then test medium including agonist is added and agonist-induced ^45 Ca release determined.
Oocytes from Xenopus laevis were harvested and prepared using published techniques (Coleman, A., in Hames, B. D., and Higgins, S. J., eds, Transcription and Translation: A Practical Approach, IRL Press, pp. 271-302; Williams, J. A., et al. Proc Natl Acad Sci USA (1988) 85:4939-4943]. To remove follicular cells, oocytes were incubated for 1.5 h with shaking in calcium-free Barth's containing 2 mg/ml each of collagenase 1A and hyaluronidase 1S. The oocytes were then washed five times in regular Barth's and incubated at 18° C. in Barth's medium containing 100 U/ml penicillin, 100 μg/ml streptomycin, and 2.5 mM sodium pyruvate. Stage V oocytes were selected and injected with 30 nl of cRNA (0.33 μg/μl water) or water alone, and then incubated with 0.25 ml of medium in groups of four/well in a 96-well culture plate. After 36 hours the oocytes were incubated with ^45 Ca (250 μCi/ml). After 12 h incubation the oocytes were washed and 0.2 ml of medium added and replaced every five minutes. The harvested medium was analyzed by scintillation counting. After five replacements to determine the baseline release of ^45 Ca, test medium with the agonist, e.g. SLIGRL (SEQ ID NO: 23), was added and the evoked ^45 Ca-release determined.
Oocytes were injected with capped cRNA (ca 10 ng) encoding wild-type mouse C140 receptor (WT) or either of the three mutant receptors 35Pro, 35Arg and 35His. After 36 hours, cRNA-injected and control water-injected, oocytes were loaded with ^45 Ca, and 12 hours thereafter peptide or trypsin-induced ^45 Ca release were determined as described above. The peptide SLIGRL (SEQ ID NO: 23) was added at 100 μM, and trypsin at 300 pM. The stimulation with the peptide was done on the same group of oocytes after the stimulation with trypsin. The data shown in Table 1 represent the mean of three replicate determinations, and denotes the increase compared to oocytes injected with water.
Various peptides were tested at 100 μM in the assay above using wild-type mouse C140 receptor, expressed in oocytes.

[2] = biological target: T2, mutant C140 receptor 35His (serine-35 replaced with histidine) (Mus musculus, UniProt P55086, S39H); assay: 45Ca release by Xenopus oocytes expressing mutant C140 receptor 35His; format: cell-based; details: 35His receptor
T2 construct: Site-directed mutagenesis was employed to construct mutant receptors in the pSG-5; expressed in transfected cells; host or cells: Xenopus laevis oocytes injected with capped cRNA
T2 sequence (P55086 32-399 S39H limits assumed): T1 sequence (P55086 32-399 limits assumed) with S8H
Excerpt: Both native and mutant C140 receptors were produced in oocytes and activated with a peptide mimicking the new amino-terminus", or by the proteolytic enzyme trypsin (which cleaves the extracellular region). Native receptors were produced by cloning the coding region of the receptor gene, using the polymerase chain reaction, into the expression vector pSG-5 (Green, S. et al., Nucleic Acid Res (1988) 16:369). The orientation and integrity of the cloned coding region was verified by determining the nucleotide sequence with the Sanger chain-termination method. Site-directed mutagenesis was employed to construct mutant receptors in the pSG-5. […]
Oocytes from Xenopus laevis were harvested and prepared using published techniques (Coleman, A., in Hames, B. D., and Higgins, S. J., eds, Transcription and Translation: A Practical Approach, IRL Press, pp. 271-302; Williams, J. A., et al. Proc Natl Acad Sci USA (1988) 85:4939-4943]. To remove follicular cells, oocytes were incubated for 1.5 h with shaking in calcium-free Barth's containing 2 mg/ml each of collagenase 1A and hyaluronidase 1S. The oocytes were then washed five times in regular Barth's and incubated at 18° C. in Barth's medium containing 100 U/ml penicillin, 100 μg/ml streptomycin, and 2.5 mM sodium pyruvate. […] The harvested medium was analyzed by scintillation counting. […]

Fold increase in 45Ca ([1]; WT receptor, trypsin at 300 pM, increase compared to water-injected oocytes, mean of three) [fold] | Fold increase in 45Ca ([2]; trypsin at 300 pM, increase compared to water-injected oocytes) [fold] | Compound | Fold increase in 45Ca ([1]; Table 2, peptides at 100 μM, wild-type mouse C140 receptor in oocytes) [fold] | Fold increase in 45Ca ([1]; WT receptor, peptide at 100 μM, same oocytes after trypsin stimulation, compared to water-injected oocytes) [fold] | Fold increase in 45Ca ([2]; peptide at 100 μM, same oocytes after trypsin stimulation) [fold]
 |  | CC[C@H](C)[C@H](NC(=O)[C@H](CC(C)C)NC(=O)[C@@H](N)CO)C(=O)NCC(=O)N[C@@H](CCCNC(=N)N)C(=O)N[C@@H](CC(C)C)C(=O)O [SLIGRL] (H-SLIGRL-OH) | 15 | 11 | 23
6.6 | 0 | trypsin |  |  | 
